Experimental data reported in patent US20260226073A1 (AURIGENE ONCOLOGY LIMITED, priority 2023, published 2026).

Experiments:
[1] = molecular target: T1, human recombinant CBL-b (human Biotin CBL-b recombinant protein a.a. 39-426) (Homo sapiens, UniProt Q13191); assay: Biochemical assay for CBL-b inhibition (ligand displacement TR-FRET); format: binding; conditions: 50 nM CBL-b, 0.3 μM Bodipy FL-Probe, read-out: IC50 (CBL-b inhibition, group)
T1 construct: human Biotin CBL-b recombinant protein a.a; 39-426; Biotin (biotinylated); made in house
How it was run: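 Ligand-displacement TR-FRET: 0.3 μM Bodipy FL probe competes with compound for 50 nM biotin-CBL-b (aa 39-426) after a 60 min RT compound pre-incubation; terbium-streptavidin detection, 60 min each step. Dose-response sigmoidal fitting gave IC50 and % maximum inhibition.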

[2] = test system: NFAT signaling pathway in Jurkat NFAT reporter cells; assay: Jurkat NFAT reporter assay; format: cell-based; conditions: Homo sapiens, 30 min with compound, then soluble anti-human CD3/CD28 antibody for 6 hours, luciferase readout, read-out: EC50 (Group)
How it was run: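 Results are expressed as fold change relative to stimulated, inhibitor-free cells. Stimulation was 6 h with soluble anti-human CD3/CD28 antibody after a 30-min exposure of 1×10^5 NFAT-RE luciferase Jurkat reporter cells per well to the Cbl-b inhibitor; signal read by Bio-Glo bioluminescence.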

[3] = test system: human PBMCs stimulated with anti-CD3/CD28 Dynabeads; assay: Human PBMC cytokine release assay (IL-2 by ELISA); format: cell-based; conditions: Dynabeads CD3/CD28 48 hours, IL-2 ELISA, fold change over baseline, read-out: EC50 (human PBMC cytokine release, group)
Method: Peripheral blood mononuclear cells (PBMC) were isolated from healthy human donor using Histopaque (Sigma). The Cbl-inhibitor was added to 1×10^5 cells per well and the plate was incubated for 30 minutes at 37° C. in 5% CO2 at different concentrations with a final DMSO concentration of <0.5%. Following incubation with the Cbl-b inhibitor, human PBMCs were stimulated with Dynabeads™ Human T-Activator CD3/CD28 (Thermo Fisher Scientific) for 48 hours. Cell free supernatant were collected after end of incubation and were analyzed for cytokine secretion, including IL-2 by ELISA (R&D Systems). Readouts were reported as fold change over baseline. Here, baseline was the measurement obtained from human PBMCs stimulated with Dynabeads™ Human T-Activator CD3/CD28, where the cells were not incubated with a Cbl-b inhibitor.

T1 sequence (Q13191 39-426): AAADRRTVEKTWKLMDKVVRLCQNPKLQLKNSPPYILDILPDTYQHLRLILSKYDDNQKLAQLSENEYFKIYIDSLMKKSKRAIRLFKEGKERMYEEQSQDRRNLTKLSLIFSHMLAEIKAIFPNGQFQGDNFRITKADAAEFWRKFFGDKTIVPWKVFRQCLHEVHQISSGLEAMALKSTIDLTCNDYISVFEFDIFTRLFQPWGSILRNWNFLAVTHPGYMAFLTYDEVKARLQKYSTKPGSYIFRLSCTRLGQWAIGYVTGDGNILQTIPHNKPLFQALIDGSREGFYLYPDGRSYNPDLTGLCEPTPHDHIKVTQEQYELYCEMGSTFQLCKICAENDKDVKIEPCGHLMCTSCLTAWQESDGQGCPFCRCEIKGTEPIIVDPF

In the case of `CCc1cc(CN2CCC[C@H](C)C2)cc(N2Cc3ccc(C4(Cc5nncn5C)COC4)cc3C2=O)c1` [Compound 11, (S)-2-(3-Ethyl-5-((3-methylpiperidin-1-yl)methyl)phenyl)-6-(3-((4-methyl-4H-1,2,4-triazol-3-yl)methyl)oxetan-3-yl)isoindolin-1-one], the IC50 [1] is reported as 80 to 300 nM, the EC50 [2] is reported as 300 to 1000 nM and the EC50 [3] is reported as less than 5 µM.

`Cc1cc(C(C)N2CCC[C@H](C)C2)cc(N2Cc3ccc(C4(Cc5nncn5C)COC4)cc3C2=O)c1` (stereo partly drawn) [Compound 12, 6-(3-((4-Methyl-4H-1,2,4-triazol-3-yl)methyl)oxetan-3-yl)-2-(3-methyl-5-(1-((S)-3-methylpiperidin-1-yl)ethyl)phenyl)isoindolin-1-one] gave an IC50 [1] of less than 80 nM, an EC50 [2] of 300 to 1000 nM and an EC50 [3] of less than 5 µM.

Compound `Cn1cnnc1CC1(c2ccc3c(c2)C(=O)N(c2cc(CNCCC(F)(F)F)cc(C(F)(F)F)n2)C3)COC1` [Compound 25, 6-(3-((4-Methyl-4H-1,2,4-triazol-3-yl)methyl)oxetan-3-yl)-2-(6-(trifluoro-methyl)-4-(((3,3,3-trifluoropropyl)amino)methyl)pyridin-2-yl)isoindolin-1-one] has an IC50 [1] of less than 80 nM, an EC50 [2] of 300 to 1000 nM and an EC50 [3] of less than 5 µM.

Compound `Cn1cnnc1CC1(c2ccc3c(c2)C(=O)N(c2cc(CN4CC5CCCC5C4)cc(C(F)(F)F)n2)C3)COC1` (stereo not drawn) [Compound 35, 2-(4-((Hexahydrocyclopenta[c]pyrrol-2(1H)-yl)methyl)-6-(trifluoromethyl)pyri-din-2-yl)-6-(3-((4-methyl-4H-1,2,4-triazol-3-yl)methyl)oxetan-3-yl)isoindolin-1-one] has an IC50 [1] of 80 to 300 nM, an EC50 [2] of 300 to 1000 nM and an EC50 [3] of less than 5 µM.

With `C[C@@H]1C[C@H](C)CN(Cc2cc(N3Cc4ccc(C5(Cc6nncn6C)COC5)cc4C3=O)nc(C(F)(F)F)c2)C1` [Compound 39, 2-(4-(((3S,5R)-3,5-Dimethylpiperidin-1-yl)methyl)-6-(trifluoromethyl)pyridin-2-yl)-6-(3-((4-methyl-4H-1,2,4-triazol-3-yl)methyl)oxetan-3-yl)isoindolin-1-one] the IC50 [1] was less than 80 nM, the EC50 [2] was less than 300 nM and the EC50 [3] was less than 5 µM.

`C[C@H]1CCCN(Cc2cc(Cl)nc(N3Cc4ccc(C5(Cc6nncn6C)COC5)cc4C3=O)c2)C1` [Compound 40, (S)-2-(6-Chloro-4-((3-methylpiperidin-1-yl)methyl)pyridin-2-yl)-6-(3-((4-methyl-4H-1,2,4-triazol-3-yl)methyl)oxetan-3-yl)isoindolin-1-one] gave an IC50 [1] of less than 80 nM, an EC50 [2] of less than 300 nM and an EC50 [3] of less than 5 µM.

For `C[C@@H]1C[C@H](C)CN(Cc2cc(Cl)nc(N3Cc4ccc(C5(Cc6nncn6C)COC5)cc4C3=O)c2)C1` [Compound 52, 2-(6-Chloro-4-(((3S,5R)-3,5-dimethylpiperidin-1-yl)methyl)pyridin-2-yl)-6-(3-((4-methyl-4H-1,2,4-triazol-3-yl)methyl)oxetan-3-yl)isoindolin-1-one], the IC50 [1] was less than 80 nM, the EC50 [2] was less than 300 nM and the EC50 [3] was less than 5 µM.

Compound `Cc1nc(CN2CCC[C@H](C)C2)cc(N2Cc3ccc(C4(Cc5nncn5C)COC4)cc3C2=O)n1` [Compound 53, (S)-6-(3-((4-Methyl-4H-1,2,4-triazol-3-yl)methyl)oxetan-3-yl)-2-(2-methyl-6-((3-methylpiperidin-1-yl)methyl)pyrimidin-4-yl)isoindolin-1-one] has an IC50 [1] of less than 80 nM, an EC50 [2] of 300 to 1000 nM and an EC50 [3] of less than 5 µM.

`Cc1cc(CN2C[C@H](C)C[C@H](C)C2)cc(N2Cc3ccc(C4(Cc5nncn5C)COC4)cc3C2=O)c1` [Compound 56, 2-(3-(((3S,5R)-3,5-Dimethylpiperidin-1-yl)methyl)-5-methylphenyl)-6-(3-((4-methyl-4H-1,2,4-triazol-3-yl)methyl)oxetan-3-yl)isoindolin-1-one] was tested, and the IC50 [1] was 80 to 300 nM, the EC50 [2] was less than 300 nM and the EC50 [3] was less than 5 µM.

`Cn1cnnc1CC1(c2ccc3c(c2)C(=O)N(c2cc(CNCC4CC4)cc(Cl)n2)C3)COC1` [Compound 57, 2-(6-Chloro-4-(((cyclopropylmethyl)amino)methyl)pyridin-2-yl)-6-(3-((4-methyl-4H-1,2,4-triazol-3-yl)methyl)oxetan-3-yl)isoindolin-1-one] gave an IC50 [1] of less than 80 nM, an EC50 [2] of less than 300 nM and an EC50 [3] of less than 5 µM.

`Cc1cc(CN2C[C@@H](C)C[C@H](C)C2)cc(N2Cc3ccc(C4(Cc5nncn5C)COC4)cc3C2=O)c1` [Compound 59, 2-(3-(((3S,5S)-3,5-Dimethylpiperidin-1-yl)methyl)-5-methylphenyl)-6-(3-((4-methyl-4H-1,2,4-triazol-3-yl)methyl)oxetan-3-yl)isoindolin-1-one] showed an IC50 [1] of 80 to 300 nM, an EC50 [2] of 300 to 1000 nM and an EC50 [3] of less than 5 µM.

`Cc1cc(CN2C[C@H](C)C[C@H](C)C2)cc(N2Cc3ccc(C4(Cc5nncn5C)COC4)cc3C2=O)n1` [Compound 78, 2-(4-(((3S,5R)-3,5-Dimethylpiperidin-1-yl)methyl)-6-methylpyridin-2-yl)-6-(3-((4-methyl-4H-1,2,4-triazol-3-yl)methyl)oxetan-3-yl)isoindolin-1-one] was tested, and the IC50 [1] was less than 80 nM, the EC50 [2] was less than 300 nM and the EC50 [3] was less than 5 µM.

With `Cn1cnnc1CC1(c2ccc3c(c2)C(=O)N(c2cc(CNCC4CC4)cc(C(F)(F)F)n2)C3)COC1` [Compound 80, 2-(4-(((Cyclopropylmethyl)amino)methyl)-6-(trifluoromethyl)pyridin-2-yl)-6-(3-((4-methyl-4H-1,2,4-triazol-3-yl)methyl)oxetan-3-yl)isoindolin-1-one] the IC50 [1] was less than 80 nM, the EC50 [2] was less than 300 nM and the EC50 [3] was less than 5 µM.
